According to patent EP0417631A2, “Condensed diazepinones, process for their preparation, and medicaments containing these compounds” (Dr. Karl Thomae GmbH, priority 1989, dated 1991):

Test system: M-Rezeptoren der Bronchien, des Herzens und der Harnblase
Experiment: Effect on M receptors of bronchi, heart and urinary bladder of anaesthetised guinea pigs (acetylcholine-induced bronchoconstriction, bradycardia, bladder tension)
Assay type: in vivo, Meerschweinchen
Source text: 1. Wirkung auf M-Rezeptoren der Bronchien, des Herzens und der Harnblase anaesthetisierter Meerschweinchen
Meerschweinchen beiderlei Geschlechts (550-600 g Körpergewicht) wurden mit Urethan (1,4 gikg, i.p.) anaesthetisiert. Eine Kanüle wurde zur Injektion der Wirkstoffe in die Jugularvene eingeführt. 220 1.U."kg Heparin wurden intravenös injiziert. Es wurde eine Kanüle in die Trachea eingeführt; die Tiere wurden künstlich mit sauerstoffangereicherter Luft mittels einer positiven Druckpumpe (Braun-Melsungen) bei einer Rate von 80 Schlägen pro Minute beatmet. Ein Ast der Trachealkanüle wurde mit einem Wassermanometer von 10 cm Höhe verbunden. Das Beatmungsvolumen wurde so eingestellt, daß der maximale intratracheale Druck während der Beatmung gerade den Druck einer 10 cm-Wassersäule erreichte.
Die Werte wurden mit einem IFD Aufnahmegerät registriert. Vor dem Versuch wurde die Trachea für eine kurze Zeit abgeklemmt, um den maximal möglichen Grad der Bronchokonstriktion zur Kalibrierung zu erzeugen. […] Die Herzfrequenz wurde mit einem Frequenzmesser, der durch arterielle Pulswellen ausgelöst wird, gemessen.
Es wurde ein kleiner medianer Bauchschnitt gesetzt und die Harnblase an einem Kraft-Transducer unter einer Ruhespannung von 1 Gramm angebunden.
Die zu testenden Wirksubstanzen wurden über die Jugularvene injiziert, 5 Minuten später wurde die Spannungszunahme der Blase (in Gramm), der Bronchialwiderstand (in %) und die Abnahme der Herzfrequenz (Schläge pro Minute) nach Gabe von Acetylcholin (50 ug/kg i.v. und i.a.) gemessen. Es wurden dosis-abhängige Kurven durch Wiedergabe der prozentualen Hemmung der Bronchokonstriktion, Bradycardie und der Spannungszunahme der Blase gegen den Logarithmus der Dosis (mol/kg) der zu untersuchenden Wirkstoffe aufgezeichnet. Die Ergebnisse werden angegeben als Mittel- werte (n=4-6). Ergebnisse siehe Tabelle I.

[1] = qualitative statement on reference substances, summing up the tests of Tabelle I-III

| SMILES | Selektivität (glatte Muskulatur gegenüber Herzfrequenz oder Speichelsekretion) (in vivo) | Selektivität (glatte Muskulatur gegenüber Herzfrequenz oder Speichelsekretion) [1] |
| --- | --- | --- |
| CN1C2CCC1CC(OC(=O)C(CO)c1ccccc1)C2 (racemic) [Z, Atropin] | keine Selektivität |  |
| CCN(CC)CC1CCCCN1CC(=O)N1c2ccccc2C(=O)Nc2cccnc21 (stereo not drawn) [X, 11-[[2-[(Diethylamino)methyl]-1-piperidinyl]acetyl]-5,11-dihydro-6H-pyrido[2,3-b][1,4]benzodiazepin-6-on] |  | höhere Wirksamkeit auf kardiale Muskarinrezeptoren |
| CN1CCN(CC(=O)N2c3ccccc3C(=O)Nc3cccnc32)CC1 [Y, 5,11-Dihydro-11-[(4-methyl-1-piperazinyl)acetyl]-6H-pyrido[2,3-b][1,4]benzodiazepin-6-on] |  | keine Selektivität |
